# Measurements reported in PMC7810988, “Inositol pyrophosphates promote the interaction of SPX domains with the coiled-coil motif of PHR transcription factors to regulate plant phosphate homeostasis” (Nature Communications, 2021).
# Key:
# Format in all cases: binding
# AtPHR1^280–360 [1] = target: T1, AtPHR1^280–360 (Arabidopsis thaliana, UniProt Q94CL7, K325A/H328A/R335A); experiment: […] TROSY NMR titration; conditions: 25 mM HEPES pH 7.0, 200 mM NaCl, 0.5 mM TCEP, 30 °C
# T1 construct: gene PHR1; coiled-coil domain fragment, residues 280-360, 6xHis tag cleaved by TEV, 15N,2H-labeled, E. coli
# AtPHR1^280–360 [2] = target: T2, AtPHR1^280–360 (Arabidopsis thaliana, UniProt Q94CL7); experiment: […] TROSY NMR titration; conditions: 25 mM HEPES pH 7.0, 200 mM NaCl, 0.5 mM TCEP, 30 °C
# T2 construct: gene PHR1; coiled-coil domain fragment, residues 280-360, 6xHis tag cleaved by TEV, 15N,2H-labeled, E. coli
# OsSPX4–OsPHR2 = target: T3, OsSPX4–OsPHR2 (Oryza sativa, UniProt Q10B79); experiment: isothermal titration calorimetry
# T3 construct: gene SPX4; OsSPX4 1-321 (cloning sentence prints OsSPX2 1-321, purification OsSPX4 1-321; His-Strep-Sumo tag cleaved) with full-length OsPHR2 1-426 (His-Strep-GB1 tag, TEV cleaved); E. coli; with Protein PHOSPHATE STARVATION RESPONSE 2
# T3 sequence (Q10B79 whole entry): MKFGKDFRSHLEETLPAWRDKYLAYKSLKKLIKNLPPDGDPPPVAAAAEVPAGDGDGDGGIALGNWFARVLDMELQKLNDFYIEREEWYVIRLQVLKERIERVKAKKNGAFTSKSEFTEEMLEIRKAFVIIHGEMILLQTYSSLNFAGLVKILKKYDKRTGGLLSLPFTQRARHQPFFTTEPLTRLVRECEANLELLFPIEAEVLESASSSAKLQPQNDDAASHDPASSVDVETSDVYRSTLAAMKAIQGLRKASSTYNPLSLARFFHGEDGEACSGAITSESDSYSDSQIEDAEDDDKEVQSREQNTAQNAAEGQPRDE
# T3 sequence (Q6Z156 whole entry partner): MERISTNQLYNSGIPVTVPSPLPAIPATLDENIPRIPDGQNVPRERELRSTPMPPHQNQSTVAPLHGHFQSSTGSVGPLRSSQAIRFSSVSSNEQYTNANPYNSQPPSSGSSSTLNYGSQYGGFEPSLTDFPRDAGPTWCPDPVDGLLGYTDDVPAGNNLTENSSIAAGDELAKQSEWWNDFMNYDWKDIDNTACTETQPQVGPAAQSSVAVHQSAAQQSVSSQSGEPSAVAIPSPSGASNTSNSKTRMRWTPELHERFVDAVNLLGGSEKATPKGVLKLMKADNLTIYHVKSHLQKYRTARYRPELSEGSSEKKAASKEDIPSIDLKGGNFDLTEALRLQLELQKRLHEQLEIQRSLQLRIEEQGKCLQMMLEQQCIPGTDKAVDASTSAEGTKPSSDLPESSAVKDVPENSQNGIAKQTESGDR
# T1 sequence (Q94CL7 280-360 K325A/H328A/R335A): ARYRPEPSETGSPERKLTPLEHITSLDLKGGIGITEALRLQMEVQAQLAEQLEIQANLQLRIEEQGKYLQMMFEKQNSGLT
# T2 sequence (Q94CL7 280-360): as the sequence (Q94CL7 280-360 K325A/H328A/R335A) above, with A46K, A49H, A56R counted along it
Kd (OsSPX4–OsPHR2) [µM],Structure (SMILES),KD (AtPHR1^280–360 [1]),KD (AtPHR1^280–360 [2])
~3,O=P(O)(O)O[C@@H]1[C@@H](OP(=O)(O)O)[C@H](OP(=O)(O)OP(=O)(O)O)[C@@H](OP(=O)(O)O)[C@H](OP(=O)(O)OP(=O)(O)O)[C@@H]1OP(=O)(O)O [InsP8],repeated the same set of experiments using the AtPHR1^KHR/A mutant protein,The derived dissociation constant is in the millimolar range and saturation could not be reached
~7,O=P(O)(O)O[C@H]1[C@@H](OP(=O)(O)O)[C@H](OP(=O)(O)O)[C@@H](OP(=O)(O)OP(=O)(O)O)[C@H](OP(=O)(O)O)[C@H]1OP(=O)(O)O [InsP7],,
